According to patent US8946234B2, “Halogen-substituted compounds” (Bayer CropScience AG, priority 2008, dated 2015):

What was measured:
[1] = logP by HPLC on a C18 phase inversion column, EEC Directive 79/831 Annex V.A8, method a) (Agilent 1100, 10-95% acetonitrile in 4.25 min); assay type: physicochemical; settings: read-out: logP
In short: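 Following EEC Directive 79/831 Annex V.A8, logP is obtained from retention on a 1.8 micron C18 column (50×4.6 mm) at 55 °C and 2.0 ml/min. Elution ran 10→95% acetonitrile (0.1% formic acid) against water (0.09% formic acid) in 4.25 min, held 1.25 min; mass detection used.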

Phaedon cochleariae = experiment: Phaedon test (PHAECO spray treatment); assay type: in vivo; settings: foliar, application rate 500 g/ha, sprayed Chinese cabbage leaf discs, mustard beetle larvae, 100% = all larvae killed, read-out: effect in %
Method: [table] To produce a suitable active ingredient preparation, part by weight of active ingredient is mixed with the stated amounts of solvents and emulsifier, and the concentrate is diluted to the desired concentration with emulsifier-containing water. Discs of Chinese cabbage leaves (Brassica pekinensis) are sprayed with an active ingredient preparation of the desired concentration and, after drying, populated with larvae of the mustard beetle (Phaedon cochleariae). After the desired time, the effect in % is determined. Here, 100% means that all of the beetle larvae have been killed; 0% means that no beetle larvae have been killed.

[2] = logP by HPLC on a C18 phase inversion column, EEC Directive 79/831 Annex V.A8, method b) (HP1100, 5-95% acetonitrile in 1.70 min); assay type: physicochemical; settings: HPLC phase inversion (reversed-phase) C18 column; HPLC method b), eluent acetonitrile/water with formic acid
In short: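 Reversed-phase C18 HPLC (Zorbax Eclipse Plus, 1.8 µm) per EEC Directive 79/831 Annex V.A8. Gradient was 5→95% acetonitrile (0.1% formic acid) against water (0.08% formic acid) over 1.70 min, then held 1.00 min, at 55 °C and 2.0 ml/min. Mass detection used a Micromass ZQ2000.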

[3] = log P from HPLC-MS, no method note printed; assay type: physicochemical; settings: method not given
[4] = HPLC phase inversion (reversed-phase) C18 column, HPLC method a), eluent acetonitrile/water with formic acid
[5] = HPLC phase inversion (reversed-phase) C18 column, HPLC, method a)

chromatographic logP [1, 4] | chromatographic logP [3] | Compound | pest or weed control at 500 g/ha (Phaedon cochleariae) | other results
3.16 |  | Cn1nc(C(F)(F)C(F)(F)F)c(I)c1C(=O)Nc1ccc(Cl)c(C(=O)NC2CC2)c1 [Ik-4, N-[4-Chloro-3-(cyclopropylcarbamoyl)phenyl]-1-methyl-3-(pentafluoroethyl)-4-iodo-1H-pyrazole-5-carboxamide] | ≥ 80% | chromatographic logP [1, 5]: 3.15
3.02 |  | O=C(NC1CC1)c1cc(NC(=O)c2cnc(OCC(F)(F)F)cc2C(F)(F)F)ccc1Cl [Ij-1, N-[4-Chloro-3-(cyclopropylcarbamoyl)phenyl]-6-(2,2,2-trifluoroethoxy)-4-(trifluoromethyl)pyridine-3-carboxamide] | ≥ 80% | 
3.11 |  | C=Cc1c(C(F)(F)C(F)(F)F)nn(C)c1C(=O)Nc1ccc(Cl)c(C(=O)NC2CC2)c1 [Ik-5, N-[4-Chloro-3-(cyclopropylcarbamoyl)phenyl]-1-methyl-3-(pentafluoroethyl)-4-ethenyl-1H-pyrazol-5-carboxamide] | ≥ 80% | chromatographic logP [1, 5]: 3.11
 | 3.08 | COC(=O)c1c(Cl)c(OCC(F)(F)F)nn1C [Methyl 4-chloro-1-methyl-3-(2,2,2-trifluoroethoxy)-1H-pyrazole-5-carboxylate] |  | 
3.34 |  | Cn1nc(C(F)(F)C(F)(F)F)c(C(F)(F)F)c1C(=O)Nc1ccc(Cl)c(C(=O)NC2CC2)c1 [Ik-1, N-[4-Chloro-3-(cyclopropylcarbamoyl)phenyl]-1-methyl-3-(pentafluoroethyl)-4-(trifluoromethyl)-1H-pyrazole-5-carboxamide] | ≥ 80% | chromatographic logP [1, 5]: 3.34

Further lines, the compound ahead of its results:

Compound | chromatographic logP [1, 4] | chromatographic logP [3] | pest or weed control at 500 g/ha (Phaedon cochleariae) | other results
O=C(NC1CC1)c1cc(NC(=O)c2cnc(Cl)nc2C(F)(F)F)ccc1Cl [Ib-1, 2-chloro-N-[4-chloro-3-(cyclopropylcarbamoyl)phenyl]-4-(trifluoromethyl)pyrimidine-5-carboxamide] | 2.36 |  | ≥ 80% | 
O=C(NC1CC1)c1cc(NC(=O)c2cnc(C(F)(F)C(F)(F)F)nc2C(F)F)ccc1Cl [Ib-27, N-[4-Chloro-3-(cyclopropylcarbamoyl)phenyl]-4-(difluoromethyl)-2-(pentafluoroethyl)pyrimidine-5-carboxamide] | 2.92 |  | ≥ 80% | 
O=C(NC1CC1)c1cc(NC(=O)c2cnc(OCC(F)(F)F)nc2C(F)(F)F)ccc1Cl [Ib-2] | 2.76 |  | ≥ 80% | 
C#CCNC(=O)c1cc(NC(=O)c2c(C(F)(F)F)c(C(F)(F)C(F)(F)F)nn2C)ccc1Cl [Ik-3, N-[4-Chloro-3-(prop-2-yn-1-ylcarbamoyl)phenyl]-1-methyl-3-(pentafluoroethyl)-4-(trifluoromethyl)-1H-pyrazole-5-carboxamide] |  |  | ≥ 80% | chromatographic logP [2]: 3.11
Cn1nc(C(F)(F)C(F)(F)F)c(I)c1C(=O)O [1-Methyl-3-pentafluoroethyl-4-iodo-1H-pyrazole-5-carboxylic acid] |  | 2.33 |  | 
Cn1nc(OCC(F)(F)F)c(Br)c1C(=O)O [4-Bromo-1-methyl-3-(2,2,2-trifluoroethoxy)-1H-pyrazole-5-carboxylic acid] |  | 2.03 |  | 
O=C(O)c1sc(C(F)(F)C(F)(F)F)nc1C(F)(F)F [2-(Pentafluoroethyl)-4-(trifluoromethyl)-1,3-thiazole-5-carboxylic acid] |  | 2.06 |  | 
CCOC(=O)c1sc(C(F)(F)C(F)(F)F)nc1C(F)(F)F [Ethyl 2-(pentafluoroethyl)-4-(trifluoromethyl)-1,3-thiazole-5-carboxylate] |  | 4.36 |  | 
CCOC(=O)c1c(C(F)(F)F)c(C2CC2)nn1C [Ethyl 3-cyclopropyl-1-methyl-4-(trifluoromethyl)-1H-pyrazole-5-carboxylate] |  | 3.66 |  | 
O=C(O)c1cnc(C(F)(F)F)nc1-c1ccccn1 [4-(Pyridin-2-yl)-2-(trifluoromethyl)pyrimidine-5-carboxylic acid] |  | 1.5 |  | 
Cn1nc(C(C)(C)F)c(C(F)(F)F)c1C(=O)O [3-(2-Fluoropropan-2-yl)-1-methyl-4-(trifluoromethyl)-1H-pyrazole-5-carboxylic acid] |  | 1.43 |  | 
Cn1nc(-c2ccc(C(F)(F)F)cc2)c(C(F)(F)F)c1C(=O)O [1-Methyl-4-(trifluoromethyl)-3-[4-(trifluoromethyl)phenyl]-1H-pyrazole-5-carboxylic acid] |  | 1.24 |  | 
